Source: PubChem BioAssay AID1963451 (Molecular Pharmacology Branch, DTP, NCI, 2024)
Where “and” joins values, the source holds several entries; their conditions need not be identical. Equal values may be shown once.

Tested on: 521955-158-R6-J3-PDC complex spheroid growth, % test/control
Experiment: Anticancer human tumor 521955-158-R6-J3-PDC patient-derived pancreatic carcinoma cell line growth inhibition [Asc]
Conditions: for viability, T/C: stronger effect = lower value
Protocol: Multicellular complex tumor spheroid response to apoptosis pathway targeting inhibitors Alrizomadlin, Pelcitoclax, and Dasminapant in combination with a variety of drugs and investigational agents in selected tumor cell lines
The MDM2 inhibitor alrizomadlin, the Bcl-2/Bcl-xL inhibitor pelcitoclax, and the IAPs inhibitor dasminapant were evaluated both individually and in combination with standard of care and investigational anticancer small molecules within a complex spheroid model of solid tumors. . Complex spheroids include a stromal component modeled by human endothelial cells (HUVEC) and fibroblasts modeled by human mesenchymal stem cells (MSCs). The concentration ranges selected for each drug and investigational agent were based upon clinically achievable concentrations if the clinical Cmax of the agent was known.
Compounds. The drugs and investigational agents: alrizomadlin (APG-115; NSC831270), pelcitoclax (APG-1252; NSC835773), dasminapant (APG-1387;NSC834197), TAK-243 (NSC785004), copanlisib (NSC809693), olaparib (NSC753686), talazoparib (NSC767125), cobimetinib (NSC 768068), eltanexor (KPT-8602, NSC 794443), abemaciclib (NSC 768073), sotorasib (NSC818433), adagrasib (NSC 831453), MRTX-1133 (NSC 836407), Iadademestat (ORY1001, NSC 806812), and RMC-4630 (NSC839698), were obtained from the NCI Developmental Therapeutics Program Chemical Repository. The FDA-approved anticancer drug set is available from the Developmental Therapeutics Program at https://dtp.cancer.gov/organization/dscb/obtaining/available plates.htm. […] The stock solutions were prepared in dimethyl sulfoxide (DMSO, Sigma-Aldrich, St. Louis, MO, cat. D2650) at 800-fold the tested concentration and stored at -70 degrees C prior to their use. All drugs and investigational agents were tested over a range starting from a high concentration at or near the clinical Cmax and decreasing in half-log increments. If the clinical Cmax for an agent had not been determined, the highest concentration tested was 10 microM.
The patient-derived cancer (PDC) cell lines include five colon adenocarcinomas: 186277-243-T-J2-PDC, 616215-338-R-J1-PDC, 439559-082-T-J2-PDC, 463943-066-T-J2-PDC, and 519858-162-T-J1-PDC; three pancreatic carcinomas: 323965-272-R-J2-PDC, 521955-158-R6-J3-PDC, and 521955-158-R2-J5-PDC; two uterine sarcomas: 327498-152-R-J2-PDC and 993429-296-R-J1-PDC; two rhabdomyosarcomas: 755483-174-R-J1-PDC and 772245-204-R-J1-PDC; two soft tissue sarcomas: 126254-015-R-J1-PDC and 494315-158-R-J1-PDC; two malignant fibrous histiocytomas: 317291-083-R-J1-PDC and 596521-263-R-J1-PDC; two breast carcinomas: 171881-019-R-J1-PDC and 885512-296-R-J2-PDC; and one ovarian carcinoma: 6556581-035-R-J-PDC were obtained from the NCI PDMR, (https://pdmr.cancer.gov). The established cell lines HSSY-2 synovial sarcoma (RRID:CVCL 8719), SYO-1 synovial sarcoma (RRID:CVCL_7146), MPNST malignant peripheral neural sheath tumor were obtained from the Sloan Kettering Institute. The following established cell lines were purchased from the American Type Culture Collection (ATCC, Manassas, VA), Sor the received from the NCI repository:, PANC-1 pancreatic carcinoma (CRL-1469, RRID:CVCL_0480), OVCAR-5 ovarian carcinoma (RRID:CVCL_1628), OVCAR-8 ovarian carcinoma (RRID:CVCL_1629), , MCF-7 breast carcinoma (CRL-12584, RRID:CVCL_0031), MDA-MB-231 breast carcinoma (CRL-12532, RRID:CVCL_0062), NCI-H1876 small cell lung carcinoma (CRL-5902, RRID:CVCL_1503), NCI-H510A small cell lung carcinoma (HTB-184, RRID:CVCL_1565), NCI-H1417 (CRL-5869, RRID:CVCL_1469), and NCI-H196 small cell lung carcinoma (CRL-5823, RRID:CVCL_1509). Dr. Peter Houghton (Greehey Children's Cancer Research Institute, University of Texas Health Science Center, San Antonio, TX) provided Rh-18 rhabdomyosarcoma (RRID:CVCL_1659). Pooled donor human umbilical vein endothelial cells (HUVEC, Lonza, cat. CC-2519) and human mesenchymal stem cells (hMSC, Lonza, cat. PT-2501) were purchased from Lonza (Walkersville, MD).
Cell Culture. […]
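Further: spheroids exposed to compounds for 7 days.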
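Wherever viability, T/C is given: 100% = DMSO vehicle control wells.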

With `O=C(c1ccc(F)c(F)c1Nc1ccc(I)cc1F)N1CC(O)([C@@H]2CCCCN2)C1` the viability, T/C (compound 0.00316 µM) was 87.6% and 110% and 88.3%, the viability, T/C (compound 0.01 µM) was 116% and 111% and 90.7% and the viability, T/C (compound 0.0316 µM) was 120% and 125% and 79.5%. For the same compound, the viability, T/C (compound 0.1 µM) was 105% and 98.2% and 79%, the viability, T/C (compound 0.316 µM) was 67.9% and 66.9% and 54% and the viability, T/C (compound 1 µM) was 41% and 41.8% and 29.7%. The IC50 (curve of compound) was 0.681 µM and 0.684 µM and 0.396 µM.
For `O=C(c1cc(Cc2n[nH]c(=O)c3ccccc23)ccc1F)N1CCN(C(=O)C2CC2)CC1` + CNC(C)C(=O)NC1CN(S(=O)(=O)c2cccc(S(=O)(=O)N3CCC4CCC(C(=O)NC(c5ccccc5)c5ccccc5)N4C(=O)C(NC(=O)C(C)NC)C3)c2)CCC2CCC(C(=O)NC(c3ccccc3)c3ccccc3)N2C1=O, the IC50 (curve of first compound, second compound 0.00316 µM) was > 10 µM, the IC50 (curve of first compound, second compound 0.01 µM) was > 10 µM and the IC50 (curve of first compound, second compound 0.0316 µM) was > 10 µM. For the same compound, the IC50 (curve of first compound, second compound 0.1 µM) was > 10 µM, the IC50 (curve of first compound, second compound 0.316 µM) was > 10 µM and the IC50 (curve of first compound, second compound 1 µM) was > 10 µM. For the same compound, the viability, T/C (second compound 0.00316 µM, first compound 0.0316 µM) was 159%, the viability, T/C (second compound 0.00316 µM, first compound 0.1 µM) was 159% and the viability, T/C (second compound 0.00316 µM, first compound 0.316 µM) was 153%. It also gave a viability, T/C (second compound 0.00316 µM, first compound 1 µM) of 151%, a viability, T/C (second compound 0.00316 µM, first compound 3.16 µM) of 155% and a viability, T/C (second compound 0.00316 µM, first compound 10 µM) of 160%. For the same compound, the viability, T/C (second compound 0.01 µM, first compound 0.0316 µM) was 166%, the viability, T/C (second compound 0.01 µM, first compound 0.1 µM) was 133% and the viability, T/C (second compound 0.01 µM, first compound 0.316 µM) was 148%. For the same compound, the viability, T/C (second compound 0.01 µM, first compound 1 µM) was 153%, the viability, T/C (second compound 0.01 µM, first compound 3.16 µM) was 138% and the viability, T/C (second compound 0.01 µM, first compound 10 µM) was 119%. The viability, T/C (second compound 0.0316 µM, first compound 0.0316 µM) was 97.5%, the viability, T/C (second compound 0.0316 µM, first compound 0.1 µM) was 87.8% and the viability, T/C (second compound 0.0316 µM, first compound 0.316 µM) was 87.7%. It also gave a viability, T/C (second compound 0.0316 µM, first compound 1 µM) of 74.3%, a viability, T/C (second compound 0.0316 µM, first compound 3.16 µM) of 132% and a viability, T/C (second compound 0.0316 µM, first compound 10 µM) of 84.9%. The viability, T/C (second compound 0.1 µM, first compound 0.0316 µM) was 92%, the viability, T/C (second compound 0.1 µM, first compound 0.1 µM) was 81.5% and the viability, T/C (second compound 0.1 µM, first compound 0.316 µM) was 87.4%. It also gave a viability, T/C (second compound 0.1 µM, first compound 1 µM) of 85.8%, a viability, T/C (second compound 0.1 µM, first compound 3.16 µM) of 138% and a viability, T/C (second compound 0.1 µM, first compound 10 µM) of 82.3%. It also gave a viability, T/C (second compound 0.316 µM, first compound 0.0316 µM) of 92.5%, a viability, T/C (second compound 0.316 µM, first compound 0.1 µM) of 81.5% and a viability, T/C (second compound 0.316 µM, first compound 0.316 µM) of 74.3%. It also gave a viability, T/C (second compound 0.316 µM, first compound 1 µM) of 72.7%, a viability, T/C (second compound 0.316 µM, first compound 3.16 µM) of 138% and a viability, T/C (second compound 0.316 µM, first compound 10 µM) of 81.7%. For the same compound, the viability, T/C (second compound 1 µM, first compound 0.0316 µM) was 93.3%, the viability, T/C (second compound 1 µM, first compound 0.1 µM) was 85.4% and the viability, T/C (second compound 1 µM, first compound 0.316 µM) was 95.1%. For the same compound, the viability, T/C (second compound 1 µM, first compound 1 µM) was 89.3%, the viability, T/C (second compound 1 µM, first compound 3.16 µM) was 138% and the viability, T/C (second compound 1 µM, first compound 10 µM) was 80.8%.
